Measurements reported in patent publication US8846639B2, “Oligomeric compounds comprising bicyclic nucleosides and having reduced toxicity” (Isis Pharmaceutical, Inc., priority 2008, dated 2014).
Where “and” joins values, the source holds several entries; their conditions need not be identical. Equal values may be shown once.

Assays:
PTEN mRNA = PTEN mRNA levels in liver, real-time PCR (Example 14 in vivo study); set-up: species or system mice; details: for PTEN mRNA levels (% inhibition): liver, 72 h
Method: (§1) Six week old male Balb/c mice (Jackson Laboratory, Bar Harbor, Me.) were administered a single intraperitoneal (i.p) injection with 4′-CH2—O-2′ BNA containing oligomers (392745 and 392063) and 6(S)-4′-CH(CH3)—O-2′ BNA containing oligomers (392749 and 411847) at a does of 3.2, 10, 32, 66 and 100 mg/kg. Oligomers 392063 and 411847 contain LNA nucleosides with methylated pyrimidines, and oligomers 392745 and 392749 contain LNA nucleosides with non-methylated pyrimidines in the wings. All intemucleoside linkages are phosphorothioates, nucleosides not followed by a subscript are βD-2′-deoxyribonucleosides, nucleosides followed by a subscript 1 are 4′-CH2—O-2′ modified bicyclic nucleosides, nucleosides followed by a subscript S are 6(S)-4′-CH(CH3)—O-2′ modified bicyclic nucleosides wherein S indicates the configuration at the 6 carbon atom and ^MeC indicates a 5′-methyl cytosine nucleoside.
Each dose group consisted of four animals. The mice were sacrificed 72 hours following the final administration to determine the PTEN mRNA levels in liver using real-time PCR and RIBOGREEN® RNA quantification reagent (Molecular Probes, Inc. Eugene, Oreg.) according to standard protocols. PTEN mRNA levels were determined relative to total RNA (using Ribogreen), prior to normalization to saline-treated control. Results are listed below as the average % inhibition of mRNA expression for each treatment group, normalized to saline-injected control.
Estimated ED50 concentrations for each oligomers were calculated using Graphpad Prism. ED50 is the dose at which 50% mRNA reducation is observed.

[1] = Liver transaminase (ALT) levels in serum (Example 14); type: in vivo, mice; details: for ALT levels: serum, saline = 24;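 on ALT levels: ALT reported in IU/L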
Method: as §1
Liver transaminase levels, alanine aminotranferease (ALT) and aspartate aminotransferase (AST), in serum were also measured relative to saline injected mice. Increases in the transaminase levels can indicate hepatotoxicity. The approximate liver transaminase levels are listed below.

[2] = Body weight at sacrifice relative to pre-dose (Example 15); type: in vivo, mice; details: for % of pre-dose weight: 72 h, PBS = 99
Method: (§2) Mice were divided into 9 groups, with 4 mice in each group. The mice of 8 groups received a single dose, administered i.p., of one of the above oligomeric compounds at a dose of 100, 32, 10, or 3.2 mg/kg. The final group was dosed with phosphate buffered saline (PBS) as a control. The mice were sacrificed 72 hours after administration. Antisense activity was determined by measuring PTEN RNA in liver.
(§3) Body weight was measured before treatment and again at sacrifice 72 hours after treatment.

[3] = Spleen weight as a measure of inflammatory response (Example 15); type: in vivo, mice; details: for spleen weight, % Control: relative to PBS control
Method: as §2
(§4) Spleens were weighed as a measure of inflammatory response.

[4] = Serum ALT, individual animals (Example 15); type: in vivo, mice; details: for ALT levels - Individual animals: serum, four animals
Method: as §2

PTEN RNA [5] = assay: PTEN RNA in liver (Example 15 in vivo study); set-up: species or system mice; details: 72 h, compared to PBS control
Method: (§5) Six week old male Balb/c mice (Jackson Laboratory, Bar Harbor, Me.) were administered a single intraperitoneal (i.p) injection of oligomers as set forth in the table below.
as §2

[6] = Body weight at sacrifice relative to pre-dose (Example 16); type: in vivo, mice; details: 72 h, PBS = 102
Method: as §2, with “17” for “9”, “16” for “8”, “liver and is expressed as % reduction compared to PBS control mice.” for “liver.”
as §3

[7] = Serum ALT, individual animals (Example 16); type: in vivo, mice; details: four animals
Method: as §2, with “17” for “9”, “16” for “8”, “liver and is expressed as % reduction compared to PBS control mice.” for “liver.”
Toxicity was assessed by measuring alanine aminotranferease (ALT) in serum.

[8] = Spleen weight as a measure of inflammatory response (Example 16); type: in vivo, mice; details: for spleen weight, % Control: relative to PBS control
Method: as §2, with “17” for “9”, “16” for “8”, “liver and is expressed as % reduction compared to PBS control mice.” for “liver.”
as §4

PTEN RNA [9] = assay: PTEN RNA in liver (Example 16 in vivo study); set-up: species or system mice; details: for % Reduction PTEN RNA: liver, 72 h, compared to PBS control; for ED50: PTEN RNA in liver
Method: as §5
as §2, with “17” for “9”, “16” for “8”, “liver and is expressed as % reduction compared to PBS control mice.” for “liver.”

spleen weight, % Control ([8]; 3.2 mg/kg) [%] | spleen weight, % Control ([8]; 10 mg/kg) [%] | spleen weight, % Control ([8]; 32 mg/kg) [%] | spleen weight, % Control ([8]; 100 mg/kg) [%] | Substance | % pre-dose wt ([6]; 3.2 mg/kg) [%] | % pre-dose wt ([6]; 10 mg/kg) [%] | % pre-dose wt ([6]; 32 mg/kg) [%] | % pre-dose wt ([6]; 100 mg/kg) [%] | ALT levels - Individual animals ([7]; 3.2 mg/kg) | ALT levels - Individual animals ([7]; 10 mg/kg) | ALT levels - Individual animals ([7]; 32 mg/kg) | ALT levels - Individual animals ([7]; 100 mg/kg) | % Reduction PTEN RNA (PTEN RNA [9]; 3.2 mg/kg single i.p.) [%] | % Reduction PTEN RNA (PTEN RNA [9]; 10 mg/kg single i.p.) [%] | % Reduction PTEN RNA (PTEN RNA [9]; 32 mg/kg single i.p.) [%] | % Reduction PTEN RNA (PTEN RNA [9]; 100 mg/kg single i.p.) [%] | ED50 (PTEN RNA [9]) [mg/kg] | other results
– | – | – | – | ^MeCSTSTAGCACTGGC^MeCSTS [ISIS 411847] | – | – | – | – | – | – | – | – | – | – | – | – | – | PTEN mRNA levels (% inhibition) (PTEN mRNA; 3.2 mg/kg single i.p.): 0%; PTEN mRNA levels (% inhibition) (PTEN mRNA; 10 mg/kg single i.p.): 32%; PTEN mRNA levels (% inhibition) (PTEN mRNA; 32 mg/kg single i.p.): 87%; PTEN mRNA levels (% inhibition) (PTEN mRNA; 66 mg/kg single i.p.): 84%; PTEN mRNA levels (% inhibition) (PTEN mRNA; 100 mg/kg single i.p.): 92%; ED50 (PTEN mRNA; estimated, Graphpad Prism, dose at which 50% mRNA reduction is observed): 12 mg/kg; ALT levels ([1]; 3.2 mg/kg): 26 IU/L; ALT levels ([1]; 10 mg/kg): 27 IU/L; ALT levels ([1]; 32 mg/kg): 16 IU/L; ALT levels ([1]; 66 mg/kg): 279 IU/L; ALT levels ([1]; 100 mg/kg): 2816 IU/L; ALT level decrease as compared to 392063 treatment ([1]; dose not stated): about 5 fold
– | – | – | – | ^mCas Tas Tds Ads Gds Cds Ads Cds Tds Gds Gds Cds ^mCas Ta [ISIS 435854] | – | – | – | – | – | – | – | – | – | – | – | – | – | % of pre-dose weight ([2]; 3.2 mg/kg): 99%; % of pre-dose weight ([2]; 10 mg/kg): 102%; % of pre-dose weight ([2]; 32 mg/kg): 102%; % of pre-dose weight ([2]; 100 mg/kg): 94%; body weight ([2]; highest dose): some weight loss; spleen weight, % Control ([3]; 3.2 mg/kg): 112%; spleen weight, % Control ([3]; 10 mg/kg): 87%; spleen weight, % Control ([3]; 32 mg/kg): 115%; spleen weight, % Control ([3]; 100 mg/kg): 160%; spleen weight compared to control and to the non-methylated compound ([3]; mouse, in vivo): marked increase; ALT levels - Individual animals ([4]; 3.2 mg/kg): 15 IU/L and 22 IU/L and 20 IU/L and 11 IU/L; ALT levels - Individual animals ([4]; 10 mg/kg): 23 IU/L and 21 IU/L and 33 IU/L and 28 IU/L; ALT levels - Individual animals ([4]; 32 mg/kg): 24 IU/L and 29 IU/L and 16 IU/L and 46 IU/L; ALT levels - Individual animals ([4]; 100 mg/kg): 1575 IU/L and 854 IU/L and 1665 IU/L and 3948 IU/L; Serum ALT ([4]; highest dose): elevated; % Reduction PTEN RNA (PTEN RNA [5]; 3.2 mg/kg single i.p.): 48%; % Reduction PTEN RNA (PTEN RNA [5]; 10 mg/kg single i.p.): 73%; % Reduction PTEN RNA (PTEN RNA [5]; 32 mg/kg single i.p.): 94%; % Reduction PTEN RNA (PTEN RNA [5]; 100 mg/kg single i.p.): 95%
106 | 96 | 97 | 98 | ^mCjs Tjs Tds Ads Gds Cds Ads Cds Tds Gds Gds Cds ^mCjs Tj [ISIS 443394] | 102 | 102 | 101 | 101 | 28 IU/L and 26 IU/L and 30 IU/L and 69 IU/L | 55 IU/L and 28 IU/L and 32 IU/L (2×) | 55 IU/L and 25 IU/L (2×) and 28 IU/L | 23 IU/L (2×) and 44 IU/L and 18 IU/L | 16 | 39 | 68 | 89 | 13.5 | –
100 | 99 | 134 | 139 | ^mCxs Txs Tds Ads Gds Cds Ads Cds Tds Gds Gds Cds ^mCxs Tx [ISIS 445545] | 100 | 102 | 101 | 102 | 20 IU/L and 34 IU/L (2×) and 31 IU/L | 79 IU/L and 19 IU/L and 28 IU/L and 18 IU/L | 22 IU/L and 45 IU/L and 24 IU/L and 47 IU/L | 102 IU/L and 135 IU/L and 277 IU/L and 85 IU/L | 21 | 55 | 87 | 92 | 7.7 | spleen weight compared to control and to the non-methylated compound ([8]; mouse, in vivo): increase in spleen weight
